Conditions: 323.15 K, Liquid, Vibrating tube method

CCCCCCC(=O)OCC(COC(=O)CCCCCC)(COC(=O)CCCCCC)COC(=O)CCCCCC [pentaerythritol tetraheptanoate]
Conditions	mass density [kg/m3]
10134 kPa	962.4
10149 kPa	962.4
10164 kPa	962.4
10178 kPa	962.4
10196 kPa	962.4
10211 kPa	962.5
10229 kPa	962.4
10244 kPa	962.5
10259 kPa	962.5
10274 kPa	962.5
10292 kPa	962.5
10307 kPa	962.6
10322 kPa	962.6
10338 kPa	962.5
10356 kPa	962.7
10371 kPa	962.6
10386 kPa	962.7
10405 kPa	962.7
10420 kPa	962.7
10436 kPa	962.7
10468 kPa	962.6
10487 kPa	962.6
10503 kPa	962.8
10519 kPa	962.7
10538 kPa	962.7
10553 kPa	962.7
10572 kPa	962.8
10588 kPa	962.7
10604 kPa	962.8
10620 kPa	962.8
10639 kPa	962.8
10656 kPa	962.8
10672 kPa	962.7
10692 kPa	962.8
10708 kPa	962.8
10725 kPa	962.8
10741 kPa	962.8
10761 kPa	962.8
10777 kPa	962.8
10794 kPa	962.9
10814 kPa	962.9
10831 kPa	963
10851 kPa	963
10868 kPa	963
10885 kPa	962.9
10902 kPa	963
10923 kPa	963
10939 kPa	963
11105 kPa	963.1
11376 kPa	963.3
11395 kPa	963.2
11414 kPa	963.3
11433 kPa	963.2
11455 kPa	963.3
11474 kPa	963.3
11493 kPa	963.4
11516 kPa	963.3
11535 kPa	963.3
11558 kPa	963.4
11577 kPa	963.4
11597 kPa	963.4
11616 kPa	963.5
11640 kPa	963.4
11659 kPa	963.3
11979 kPa	963.7
12025 kPa	963.7
12045 kPa	963.6
12070 kPa	963.6
12091 kPa	963.7
12113 kPa	963.7
12138 kPa	963.7
12159 kPa	963.7
12181 kPa	963.8
12205 kPa	963.8
12226 kPa	963.7
12252 kPa	963.7
12274 kPa	963.9
12296 kPa	963.8
12322 kPa	963.9
12344 kPa	963.9
12367 kPa	964
12389 kPa	963.9
12416 kPa	963.9
12438 kPa	964
12488 kPa	963.9
12510 kPa	963.9
12533 kPa	964.1
12583 kPa	964.1
12606 kPa	964.1
12634 kPa	964.1
12680 kPa	964.2
12756 kPa	964.1
12832 kPa	964.3
12856 kPa	964.2
12884 kPa	964.2
12908 kPa	964.2
12937 kPa	964.3
13227 kPa	964.5
14188 kPa	965.1
14278 kPa	965.1
14314 kPa	965
14343 kPa	965.1
14609 kPa	965.3
14641 kPa	965.4
14675 kPa	965.3
14706 kPa	965.3
14744 kPa	965.4
14917 kPa	965.5
14957 kPa	965.6
14988 kPa	965.6
15013 kPa	965.6
15044 kPa	965.4
